Drawing on ChEMBL document CHEMBL2346513, “Synthesis and evaluation of methylsulfonylnitrobenzamides (MSNBAs) as inhibitors of the thyroid hormone receptor-coactivator interaction” (Bioorg Med Chem Lett, 2013), this text covers IC50 and EC50 for 29 compounds.

Molecules are shown by their SMILES.

One assay concerns the target T1, Vitamin D3 receptor (Homo sapiens, UniProt P11473).
T1 sequence (P11473 whole entry): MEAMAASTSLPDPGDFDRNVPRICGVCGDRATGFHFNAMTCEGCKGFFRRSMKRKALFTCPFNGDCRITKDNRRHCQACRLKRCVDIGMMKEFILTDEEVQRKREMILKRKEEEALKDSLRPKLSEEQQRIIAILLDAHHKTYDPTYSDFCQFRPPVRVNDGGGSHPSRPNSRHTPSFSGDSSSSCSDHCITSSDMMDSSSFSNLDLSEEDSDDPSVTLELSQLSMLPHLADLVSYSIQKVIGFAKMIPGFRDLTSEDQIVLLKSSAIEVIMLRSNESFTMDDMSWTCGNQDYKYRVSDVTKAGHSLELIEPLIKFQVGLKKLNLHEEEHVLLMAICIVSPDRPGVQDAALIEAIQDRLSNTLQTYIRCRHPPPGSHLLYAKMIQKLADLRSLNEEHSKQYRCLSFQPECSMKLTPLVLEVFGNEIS
Put plainly: Inhibition of VDR (unknown origin) interaction to SRC2-3 peptide by fluorescence polarization assay.

Another assay deals with HepG2. The assay can be described thus: Cytotoxicity against human HepG2 cells assessed as ATP level after 72 hrs by CellTiter-Glo assay. It counts as cell-based. The conditions noted are these: HepG2, 72 h.
The target of assay [1] is T2, Thyroid hormone receptor alpha (Homo sapiens, UniProt P10827).
T2 sequence (P10827 whole entry): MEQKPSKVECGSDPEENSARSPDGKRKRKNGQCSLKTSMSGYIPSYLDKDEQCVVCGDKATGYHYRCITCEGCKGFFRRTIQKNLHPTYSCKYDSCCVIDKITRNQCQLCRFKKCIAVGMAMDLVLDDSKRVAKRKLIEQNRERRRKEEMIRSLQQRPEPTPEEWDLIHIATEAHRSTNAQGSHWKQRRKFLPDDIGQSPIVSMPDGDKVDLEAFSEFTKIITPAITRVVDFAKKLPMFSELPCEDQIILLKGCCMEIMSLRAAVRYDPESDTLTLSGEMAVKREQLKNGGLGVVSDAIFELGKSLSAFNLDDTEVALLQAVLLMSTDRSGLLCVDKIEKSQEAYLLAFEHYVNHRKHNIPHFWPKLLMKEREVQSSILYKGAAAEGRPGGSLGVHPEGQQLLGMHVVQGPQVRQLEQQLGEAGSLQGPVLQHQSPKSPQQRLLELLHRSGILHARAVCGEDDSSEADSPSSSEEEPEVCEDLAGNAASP
The assay can be described thus: Inhibition of TRalpha-LBD (unknown origin) interaction to texas red-labeled SRC2-2 peptide by fluorescence polarization assay.

In assay [2] the target is T3, Thyroid hormone receptor beta (Homo sapiens, UniProt P10828).
T3 sequence (P10828 whole entry): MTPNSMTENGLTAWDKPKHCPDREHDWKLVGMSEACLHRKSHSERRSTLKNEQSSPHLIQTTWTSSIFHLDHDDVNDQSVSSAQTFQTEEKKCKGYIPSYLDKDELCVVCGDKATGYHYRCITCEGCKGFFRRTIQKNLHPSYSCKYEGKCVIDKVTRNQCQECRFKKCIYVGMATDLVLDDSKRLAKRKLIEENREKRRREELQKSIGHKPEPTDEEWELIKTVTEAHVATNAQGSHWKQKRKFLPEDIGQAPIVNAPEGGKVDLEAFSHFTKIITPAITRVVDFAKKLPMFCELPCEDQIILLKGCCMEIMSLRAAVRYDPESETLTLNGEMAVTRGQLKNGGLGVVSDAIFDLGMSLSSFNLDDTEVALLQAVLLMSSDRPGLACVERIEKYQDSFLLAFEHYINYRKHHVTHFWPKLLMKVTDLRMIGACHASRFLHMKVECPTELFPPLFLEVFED
Put plainly: Inhibition of TRbeta-LBD (unknown origin) interaction to texas red-labeled SRC2-2 peptide by fluorescence polarization assay.

For the compound `CS(=O)(=O)c1ccc(C(=O)NCCCC(=O)N2CCN(c3ccc(F)cc3)CC2)cc1[N+](=O)[O-]`, the IC50 against Vitamin D3 receptor was 65 µM; in assay [1], more than 60 µM; in assay [2], more than 60 µM. In the assay with HepG2, the EC50 was more than 27 µM.
For `Cc1ccc(N2CCN(C(=O)CCNC(=O)c3ccc(S(C)(=O)=O)c([N+](=O)[O-])c3)CC2)cc1`, the IC50 (against Vitamin D3 receptor; in assay [1]; in assay [2]) was more than 60 µM throughout. The EC50 in the assay with HepG2 is more than 27 µM.
Consider `CS(=O)(=O)c1ccc(C(=O)N2CCC(C(=O)N3CCCCC3)CC2)cc1[N+](=O)[O-]`, for which the IC50 (at Vitamin D3 receptor; in assay [1]; in assay [2]) was more than 60 µM throughout. The EC50 in the assay with HepG2 was more than 27 µM.
Turning to `CN(Cc1cccc(F)c1)C(=O)CCNC(=O)c1ccc(S(C)(=O)=O)c([N+](=O)[O-])c1`, the IC50 against Vitamin D3 receptor was more than 60 µM; in assay [1], 29 µM; in assay [2] it was more than 60 µM. In addition, in the assay with HepG2, the EC50 stood at 11.2 µM.
Regarding `CS(=O)(=O)c1ccc(C(=O)NCC(=O)N(Cc2ccccc2)c2ccccc2)cc1[N+](=O)[O-]`, the IC50 was more than 60 µM against Vitamin D3 receptor, more than 60 µM in assay [1] and 20 µM in assay [2]. The EC50 in the assay with HepG2 is more than 27 µM.
For `CC1CCN(C(=O)CNC(=O)c2ccc(S(C)(=O)=O)c([N+](=O)[O-])c2)CC1`, the IC50 against Vitamin D3 receptor is more than 60 µM; in assay [1], 33 µM; in assay [2] it was 38 µM. In addition, in the assay on HepG2, the EC50 is more than 27 µM.
Consider `CN(Cc1cccc(F)c1)C(=O)C1CCN(C(=O)c2ccc(S(C)(=O)=O)c([N+](=O)[O-])c2)CC1`, for which the IC50 (at Vitamin D3 receptor; in assay [1]; in assay [2]) was more than 60 µM throughout. In addition, in the assay with HepG2, the EC50 is more than 27 µM.
As to `CN(CC(=O)N(Cc1ccccc1)Cc1ccccc1)C(=O)c1ccc(S(C)(=O)=O)c([N+](=O)[O-])c1`, the IC50 (against Vitamin D3 receptor; in assay [1]; in assay [2]) was more than 60 µM throughout. Also, the EC50 in the assay on HepG2 is more than 27 µM.
Consider `CN(Cc1cccc(F)c1)C(=O)CN(C)C(=O)c1ccc(S(C)(=O)=O)c([N+](=O)[O-])c1`, for which the IC50 (against Vitamin D3 receptor; in assay [1]; in assay [2]) was more than 60 µM throughout. Also, the EC50 with HepG2 was more than 27 µM.
On to `CC1Cc2ccccc2N1C(=O)C1CCN(C(=O)c2ccc(S(C)(=O)=O)c([N+](=O)[O-])c2)CC1` (stereo unspecified), for which the IC50 (against Vitamin D3 receptor; in assay [1]; in assay [2]) was more than 60 µM each time. In the assay on HepG2, the EC50 is more than 27 µM.
`CS(=O)(=O)c1ccc(C(=O)NCCCC(=O)N2CCc3ccccc32)cc1[N+](=O)[O-]`: the IC50 (against Vitamin D3 receptor; in assay [1]; in assay [2]) was more than 60 µM each time. Moreover, in the assay with HepG2, the concentration giving a half-maximal response (EC50) is more than 27 µM.
For the compound `CS(=O)(=O)c1ccc(C(=O)NCCCC(=O)N2CCC(c3ccccc3)CC2)cc1[N+](=O)[O-]`, the IC50 (at Vitamin D3 receptor; in assay [1]; in assay [2]) was more than 60 µM each time. The EC50 with HepG2 was more than 27 µM.
Consider `CN1CCN(C(=O)CNC(=O)c2ccc(S(C)(=O)=O)c([N+](=O)[O-])c2)CC1`, for which the IC50 (on Vitamin D3 receptor; in assay [1]; in assay [2]) was more than 60 µM in each case. The EC50 with HepG2 was more than 27 µM.
For the compound `CS(=O)(=O)c1ccc(C(=O)NCCC(=O)N2CCCCC2)cc1[N+](=O)[O-]`, the IC50 (on Vitamin D3 receptor; in assay [1]; in assay [2]) was more than 60 µM each time. For the same compound, in the assay on HepG2, the EC50 was more than 27 µM.
As to `CC1Cc2ccccc2N1C(=O)CN(C)C(=O)c1ccc(S(C)(=O)=O)c([N+](=O)[O-])c1` (stereo unspecified), the IC50 (on Vitamin D3 receptor; in assay [1]; in assay [2]) was more than 60 µM throughout. In the assay on HepG2, the EC50 is 5.5 µM.
Regarding `CN(CC(=O)N1CCN(c2ccc(F)cc2)CC1)C(=O)c1ccc(S(C)(=O)=O)c([N+](=O)[O-])c1`, the IC50 (against Vitamin D3 receptor; in assay [1]; in assay [2]) was more than 60 µM each time. Besides, the EC50 in the assay on HepG2 was found to be 17.2 µM.
Take `CN1CCN(C(=O)C2CCN(C(=O)c3ccc(S(C)(=O)=O)c([N+](=O)[O-])c3)CC2)CC1`: the IC50 (against Vitamin D3 receptor; in assay [1]; in assay [2]) was more than 60 µM each time. Also, the EC50 with HepG2 is more than 27 µM.
Consider `CS(=O)(=O)c1ccc(C(=O)N2CCC(C(=O)NC34CC5CC(CC(C5)C3)C4)CC2)cc1[N+](=O)[O-]`, for which the IC50 (against Vitamin D3 receptor; in assay [1]; in assay [2]) was more than 60 µM throughout. Besides, in the assay on HepG2, the EC50 was more than 27 µM.
`CC1CCN(C(=O)CCNC(=O)c2ccc(S(C)(=O)=O)c([N+](=O)[O-])c2)CC1`: the IC50 (on Vitamin D3 receptor; in assay [1]; in assay [2]) was more than 60 µM each time. Moreover, the EC50 with HepG2 is more than 27 µM.
For `CS(=O)(=O)c1ccc(C(=O)NCCCC(=O)N2CCN(c3ccc(C(F)(F)F)cc3)CC2)cc1[N+](=O)[O-]`, the IC50 was 7 µM against Vitamin D3 receptor, more than 60 µM in assay [1] and more than 60 µM in assay [2]. The EC50 in the assay with HepG2 is 13 µM.
In the case of `Cc1ccc(N2CCN(C(=O)C3CCN(C(=O)c4ccc(S(C)(=O)=O)c([N+](=O)[O-])c4)CC3)CC2)cc1`, the IC50 (on Vitamin D3 receptor; in assay [1]; in assay [2]) was more than 60 µM in each case. Besides, the EC50 in the assay with HepG2 is more than 27 µM.
For the compound `CS(=O)(=O)c1ccc(C(=O)NCCC(=O)N2Cc3ccccc3C2)cc1[N+](=O)[O-]`, the IC50 (against Vitamin D3 receptor; in assay [1]; in assay [2]) was more than 60 µM throughout. Further, the EC50 in the assay on HepG2 worked out at 11.2 µM.
Take `CN(CC(=O)N1CCc2ccccc21)C(=O)c1ccc(S(C)(=O)=O)c([N+](=O)[O-])c1`: the IC50 (on Vitamin D3 receptor; in assay [1]; in assay [2]) was more than 60 µM each time. For the same compound, in the assay on HepG2, the EC50 was more than 27 µM.
For the compound `CN(CC(=O)N1Cc2ccccc2C1)C(=O)c1ccc(S(C)(=O)=O)c([N+](=O)[O-])c1`, the IC50 (at Vitamin D3 receptor; in assay [1]; in assay [2]) was more than 60 µM each time. The EC50 with HepG2 was more than 27 µM.
On to `CN(Cc1ccccc1)C(=O)CNC(=O)c1ccc(S(C)(=O)=O)c([N+](=O)[O-])c1`, for which the results for the IC50 (against Vitamin D3 receptor; in assay [1]; in assay [2]) were more than 60 µM, more than 60 µM and 39 µM, respectively. The EC50 in the assay on HepG2 was more than 27 µM.
Consider `CS(=O)(=O)c1ccc(C(=O)NCC(=O)N2CCN(c3ccccc3)CC2)cc1[N+](=O)[O-]`, for which the IC50 (against Vitamin D3 receptor; in assay [1]; in assay [2]) was more than 60 µM each time. In the assay on HepG2, the EC50 is more than 27 µM.
Regarding `CS(=O)(=O)c1ccc(C(=O)N2CCC(C(=O)N3CCc4ccccc43)CC2)cc1[N+](=O)[O-]`, the IC50 (at Vitamin D3 receptor; in assay [1]; in assay [2]) was more than 60 µM in each case. Moreover, in the assay with HepG2, the EC50 was more than 27 µM.
For the compound `CS(=O)(=O)c1ccc(C(=O)N2CCC(C(=O)N3CCN(c4ccc(F)cc4)CC3)CC2)cc1[N+](=O)[O-]`, the IC50 (against Vitamin D3 receptor; in assay [1]; in assay [2]) was more than 60 µM each time. Besides, the EC50 with HepG2 is more than 27 µM.
`CS(=O)(=O)c1ccc(C(=O)N2CCC(C(=O)N3CCC(c4ccccc4)CC3)CC2)cc1[N+](=O)[O-]`: the IC50 (against Vitamin D3 receptor; in assay [1]; in assay [2]) was more than 60 µM each time. Further, the EC50 in the assay with HepG2 was more than 27 µM.
